According to paper PMC7949135, “Structural analysis of carbohydrate binding by the macrophage mannose receptor CD206” (The Journal of Biological Chemistry, 2021):
Read-outs that look alike come from different tables or passages of the source.

Target: T1, biotin-tagged CRD4 (carbohydrate-recognition domain 4 of the mannose receptor, CD206) (Homo sapiens, UniProt P22897)
T1 construct: gene MRC1; borders from residues reported in crystals
T1 sequence (P22897 646-779): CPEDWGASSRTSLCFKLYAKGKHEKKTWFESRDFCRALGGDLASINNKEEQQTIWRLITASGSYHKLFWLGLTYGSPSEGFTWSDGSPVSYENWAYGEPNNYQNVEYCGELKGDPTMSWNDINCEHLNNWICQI
Test: solid-phase competition with horseradish peroxidase, CRD4 immobilised on streptavidin plates
Format: binding
Source text: solid-phase competition with horseradish peroxidase, CRD4 immobilised on streptavidin plates on biotin-tagged CRD4 (carbohydrate-recognition domain 4 of the mannose receptor, CD206)

[1] = competitive, 2.5 mM CaCl2, 150 mM NaCl, 25 mM Tris-Cl pH 7.8, 4 °C

Row | Ki [1] [µM] | Ki [µM] | SMILES
1 | 380 ± 30 |  | OC[C@H]1O[C@H](OC[C@H]2OC(O)[C@@H](O)[C@@H](O)[C@@H]2O)[C@@H](O)[C@@H](O)[C@@H]1O (some centres unmarked) [Manα1-6Man]
2 | 480 ± 40 |  | OC[C@H]1O[C@H](O[C@@H]2C(O)O[C@H](CO)[C@@H](O)[C@@H]2O)[C@@H](O)[C@@H](O)[C@@H]1O (some centres unmarked) [Manα1-2Man]
3 | 300 ± 80 |  | OC[C@H]1O[C@H](OC[C@H]2OC(O)[C@@H](O)[C@@H](O[C@H]3O[C@H](CO)[C@@H](O)[C@H](O)[C@@H]3O)[C@@H]2O)[C@@H](O)[C@@H](O)[C@@H]1O (some centres unmarked) [Manα1-6(Manα1-3)Man]
4 |  | 110 ± 20 | CO[C@@H]1O[C@@H](C)[C@@H](O)[C@@H](O)[C@@H]1O [αMeFuc]
5 | 23 ± 0.4 |  | CC(=O)N[C@H]1[C@H](O[C@H]2[C@H](O)[C@@H](NC(C)=O)C(O)O[C@@H]2CO)O[C@H](CO)[C@@H](O[C@@H]2O[C@H](CO[C@H]3O[C@H](CO[C@H]4O[C@H](CO)[C@@H](O)[C@H](O)[C@@H]4O[C@H]4O[C@H](CO)[C@@H](O)[C@H](O)[C@@H]4O)[C@@H](O)[C@H](O[C@H]4O[C@H](CO)[C@@H](O)[C@H](O)[C@@H]4O[C@H]4O[C@H](CO)[C@@H](O)[C@H](O)[C@@H]4O)[C@@H]3O)[C@@H](O)[C@H](O[C@H]3O[C@H](CO)[C@@H](O)[C@H](O)[C@@H]3O[C@H]3O[C@H](CO)[C@@H](O)[C@H](O)[C@@H]3O[C@H]3O[C@H](CO)[C@@H](O)[C@H](O)[C@@H]3O)[C@@H]2O)[C@@H]1O (some centres unmarked) [Man9]
6 |  | 900 ± 100 | CO[C@H]1O[C@H](CO)[C@@H](O)[C@H](O)[C@@H]1O [α-Methyl mannose]
7 | 730 ± 70 |  | OC[C@H]1O[C@H](O[C@H]2[C@H](O)[C@H](O)C(O)O[C@@H]2CO)[C@@H](O)[C@@H](O)[C@@H]1O (some centres unmarked) [Manα1-4Man]
8 | 860 ± 50 |  | OC[C@H]1O[C@H](O[C@H]2[C@H](O)[C@@H](CO)OC(O)[C@H]2O)[C@@H](O)[C@@H](O)[C@@H]1O (some centres unmarked) [Manα1-3Man]
